In patent US7781472B2, “Therapy for the treatment of disease” (TheraVida, Inc., priority 2005, dated 2010):

Key:
[1] = tested on: healthy human subject; test: Stimulated saliva flow, case study of tolterodine and pilocarpine (Example 6); assay type: in vivo; conditions: 2 mg tolterodine tartrate alone
Experimental: In this study, the effect of tolterodine, pilocarpine, the combination of the two, and placebo was measured in separate, yet identical, studies in a single individual.
Effect of Tolterodine—A healthy human subject was given a 2 mg dose of tolterodine tartrate and the amount of salivation was measured with time over an 8 hour period. As shown in FIGS. 6 and 7 (♦, diamond), the amount of saliva flow collected over 2 minute periods decreased after dosing and the saliva flow remained low after 3 hrs.
Effect of Dose Ratio Between Tolterodine and Pilocarpine—In this experiment the results of two separate dose ratios between tolterodine and pilocarpine were compared with the results of placebo and administration of tolterodine alone. In one experiment, 2 mg of tolterodine was administered to a healthy individual and saliva flow was measured for 8 hours. Using a similar protocol, 2 mg of tolterodine was administered to a healthy individual at t=0, followed by 5 mg of pilocarpine at t=30 min. Similarly, 2 mg of tolterodine was administered to a healthy individual at t=0, followed by 10 mg of pilocarpine at t=30 min. Finally, the results were compared with the administration of placebo (FIG. 6 (●, closed circle)). […] Therefore, an effective dose ratio for the combination […] and pilocarpine is when 2 mg of tolterodine is combined with 10 mg of pilocarpine.
Effect of Combination of Tolterodine and Pilocarpine—In a separate human study, the combination of tolterodine and pilocarpine was administered to a healthy human subject. To the subject 2 mg of tolterodine followed by 10 mg of pilocarpine were administered with various delays in the administration of pilocarpine. Saliva flow was measured as before.
In one study, 10 mg of pilocarpine was administered to the subject 15 minutes after the administration of 2 mg of tolterodine. Saliva flow was measured as before. In another study, 10 mg of pilocarpine was administered to the subject 22 minutes after the administration of 2 mg of tolterodine. Saliva flow was measured as before. […] Saliva flow was measured as before.

[2] = tested on: healthy human subject; test: Stimulated salivary flow, case study of oxybutynin and cevimeline alone and combined (Example 5); assay type: in vivo; conditions: for Amount of Saliva Collecetd over 2 min: cevimeline 30 mg and/or oxybutynin 5 mg oral, single subject, in g; for amount of saliva flow collected over 2 minute periods after dosing (in words) / time at which saliva flow reached the pre-dose level: single agent alone (oxybutynin HCl 5 mg; cevimeline 30 mg)
Experimental: In this study, the effect of oxybutynin, cevimeline, the combination of the two, and placebo was measured in separate studies in a single individual.
Effect of Oxybutynin—A healthy human subject was given a 5 mg dose of oxybutynin HCl and the amount of salivation was measured with time over an 8 hour period. As shown in FIG. 5 (●, circle), the amount of saliva flow collected over 2 minutes periods decreased after dosing and the saliva flow remained low after 3 hrs. The amount of saliva flow started increasing after 3 hrs and continued increasing reaching the pre-dose level after 8 hrs post-dosing. The data generated in this study is consistent with the literature data.
Effect of Cevimeline—In a separate human study the effect of administering 30 mg of cevimeline was evaluated in a healthy human subject to ensure that cevimeline indeed increases salivary gland flow. […] The decrease in saliva flow continued until it reached about the normal saliva flow and pre-dosing level after about 6 hrs.
Effect of Combination of Oxybutynin and Cevimeline—In a separate human study, the combination of oxybutynin and cevimeline was administered to a healthy human subject. To the subject 5 mg of oxybutynin followed simultaneously by 30 mg of cevimeline, with no time delay, was administered. Saliva flow was measured as before. Results are shown in FIG. 5 (▪, square), where the combination is referred to as THVD-102.

[3] = tested on: healthy human subject; test: Stimulated saliva flow, case study of oxybutynin and pilocarpine alone and combined (Example 4); assay type: in vivo; conditions: FIG. 1; for amount of saliva flow collected over 2 minute periods after dosing (in words): single agent alone (oxybutynin HCl 5 mg; pilocarpine HCl), single healthy subject, 8 hour period; for time at which saliva flow reached the pre-dose level: single agent alone, post-dosing
Experimental: (§1) The following measurements are made just prior to and at frequent intervals for up to 6 hours post dose: • Salivary flow is determined by chewing Parafilm for 2 minutes • Dry mouth is determined by VAS • Urine volume/void and frequency over 6 hours post dose is measured • Blood samples are taken for pharmacokinetics at pre-dose, and at 0.5, 1, 2, 3, 4, and 6 hours post dose • Food and water intake are standardized over the 6 hour period
In this study, the effect of oxybutynin, pilocarpine, the combination of the two, and placebo was measured in six separate, yet identical, studies in a single individual.
Effect of Oxybutynin—A healthy human subject was given a 5 mg dose of oxybutynin HCl and the amount of salivation was measured with time over an 8 hour period. […]

[4] = Plasma concentration of oxybutynin after 5 mg oxybutynin alone or followed by 5 mg pilocarpine, four way crossover clinical trial; assay type: in vivo, human; conditions: 5 mg pilocarpine 30 min after 5 mg oxybutynin
Experimental: as §1
The study is a double blind, randomized, placebo-controlled, with 4 sequences (4 doses over 4 weeks) with the drugs being administered orally as a single dose. There is a One-week washout between study days. […]
Plasma Concentration of Oxybutynin—In a separate study, the plasma concentration of oxybutynin was measured in two groups of subjects: one group received 5 mg of oxybutynin alone and another group received 5 mg of oxybutynin followed by 5 mg pilocarpine after 30 min. The plasma concentrations were measured before the administration of oxybutynin and in hours 1, 2, 3, 4, and 6 after its administration. […]

[5] = Time −0.17 hr (pre-dose), text gives saliva flow in g/2 min

| Compound | Amount of Saliva Collecetd over 2 min ([2]; Time 0 hr) | Amount of Saliva Collecetd over 2 min ([2]; Time 0.5 hr) | Amount of Saliva Collecetd over 2 min ([2]; Time 1 hr) | Amount of Saliva Collecetd over 2 min ([2]; Time 1.5 hr) | Amount of Saliva Collecetd over 2 min ([2]; Time 2 hr) | Amount of Saliva Collecetd over 2 min ([2]; Time 3 hr) | Amount of Saliva Collecetd over 2 min ([2]; Time 4 hr) | Amount of Saliva Collecetd over 2 min ([2]; Time 5 hr) | Amount of Saliva Collecetd over 2 min ([2]; Time 6 hr) | Amount of Saliva Collecetd over 2 min ([2]; Time 8 hr) | Amount of Saliva Collecetd over 2 min [2, 5] | amount of saliva flow collected over 2 minute periods after dosing (in words) ([2]; FIG. 5) | time at which saliva flow reached the pre-dose level ([2]; FIG. 5) | amount of saliva flow collected over 2 minute periods after dosing (in words) [3] | time at which saliva flow reached the pre-dose level [3] | other results |
| --- | --- | --- | --- | --- | --- | --- | --- | --- | --- | --- | --- | --- | --- | --- | --- | --- |
| Cc1ccc(O)c([C@H](CCN(C(C)C)C(C)C)c2ccccc2)c1 (stereo in doubt) [tolterodine, (R)-2-[3-[bis(1-methylethyl-amino]-1-phenylpropyl]-4-methylphenol [R—(R*,R*)]-2,3-dihydroxybutanedionic acid] | – | – | – | – | – | – | – | – | – | – | – | – | – | – | – | time after which saliva flow started increasing again [1]: about 4 hrs; amount of saliva flow collected over 2 minute periods after dosing (in words) ([1]; 8 hour period, FIGS. 6 and 7): decreased; time at which saliva flow reached the pre-dose levels ([1]; not completely reached at end of observation): > 8 h |
| CC1OC2(CS1)CN1CCC2CC1 (stereo not shown) [Cevimeline, cevimeline] | 2.6273 | 2.7791 | 4.1213 | 4.6029 | 3.7314 | 3.5888 | 3.5914 | 2.6099 | 2.205 | 1.7973 | 2.4808 | increased sharply | about 6 hrs | – | – | time of peak saliva flow ([2]; 30 mg cevimeline alone, FIG. 5): close to two hours; Amount of Saliva Collecetd over 2 min ([2]; Time 2.5 hr): 3.7641; Amount of Saliva Collecetd over 2 min ([2]; Time 3.5 hr): 3.9316 |
| CCN(CC)CC#CCOC(=O)C(O)(c1ccccc1)C1CCCCC1 (stereo not shown) [Oxybutynin, oxybutynin] | 2.4536 | 1.8558 | 1.2308 | 1.2326 | 1.3548 | 1.1829 | 1.5868 | 2.1475 | 2.0096 | 2.3028 | 2.2208 | decreased | 8 h | decreased | 8 h | time after which saliva flow started increasing again ([3]; 5 mg oxybutynin HCl alone): 3 h; time after which saliva flow started increasing again ([2]; 5 mg oxybutynin HCl alone, FIG. 5): 3 h |
| CC[C@@H]1C(=O)OC[C@@H]1Cc1cncn1C [pilocarpine] | – | – | – | – | – | – | – | – | – | – | – | – | – | increased sharply | about 5 hrs | time of peak saliva flow ([3]; pilocarpine HCl alone): half an hour; effect of pilocarpine on the plasma concentration of oxybutynin [4]: does not affect the plasma concentration of oxybutynin at all |
